Paper PMC10713630, “Elucidation of the structural basis for ligand binding and translocation in conserved insect odorant receptor co-receptors” (Nature Communications, 2023)
Where “and” joins values, the source holds several entries; their conditions need not be identical. Identical values can stand only once.

How the values were obtained:
DmelOrco I181A = DmelOrco I181A (Drosophila melanogaster, UniProt Q9VNB5, I181A); assay: TEVC recording of VUAA1-induced current, DmelOrco I181A in Xenopus oocytes; type: cell-based; design: VUAA1-induced current, i181A: unit not given here
Source text: (§1) All Orco gene sequences were optimized[63] for protein expression in Xenopus laevis oocytes with the GenSmartTM Codon optimization Tool and subcloned into a pGEMHE-derived vector. The wildtype gene of Drosophila melanogaster Orco (DmelOrco) was synthesized by Genscript and subcloned with XmaI/XhoI cloning sites. Site-directed mutagenesis of DmelOrco was done by PCR with the Q5® site directed mutagenesis kit (NEB) using primers optimized with the NEBase Changer online tool and following the supplier’s protocol. After transformation of commercial competent bacteria (XL10 Gold) by standard heat-shock protocol and overnight culture in ampicillin-containing LB plates, positive clones were identified by electrophoretic restriction profile and external sequencing (Genewiz). DNAs of positive clones were amplified with Qiagen MidiPrep Kit and the ORF was fully sequenced. For in vitro transcription, DNAs were linearized with restriction enzyme NotI that cuts a unique site in the 3′ region of the polyA tail. […] DNA and RNA were analyzed by agarose-gel electrophoresis and quantified by spectrophotometry. […]
(§2) Whole cell currents were recorded with the two-electrode voltage-clamp (TEVC) technique with the HiClamp robot (MultiChannel System). […] Data were extracted with M. Vivaudou’s programs[65] and statistically analyzed with Prism 8 (Graphpad).

DmelOrco L141A = DmelOrco L141A (Drosophila melanogaster, UniProt Q9VNB5, L141A); assay: TEVC recording of VUAA1-induced current, DmelOrco L141A in Xenopus oocytes; type: cell-based; conditions: 500 µM VUAA1, TEVC
Source text: as §1, with “sequenced.” for “sequenced. For in vitro transcription, DNAs were linearized with restriction enzyme NotI that cuts a unique site in the 3′ region of the polyA tail.”
(§3) Whole cell currents were recorded with the two-electrode voltage-clamp (TEVC) technique with the HiClamp robot (MultiChannel System). […] Data were extracted with M. Vivaudou’s programs[65] and statistically analyzed with Prism 8 (Graphpad). […]
(§4) 100 by 500 µM of the ligand VUAA1 and measured by TEVC recordings on DmelOrco WT and mutants […]

DmelOrco W150A = DmelOrco W150A (Drosophila melanogaster, UniProt Q9VNB5, W150A); assay: TEVC recording of VUAA1-induced current, DmelOrco W150A in Xenopus oocytes; type: cell-based; design: VUAA1-induced current, W150A: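 current amplitude in µA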
Source text: as §1, §2

DmelOrco T80A = DmelOrco T80A (Drosophila melanogaster, UniProt Q9VNB5, T80A); assay: TEVC recording of VUAA1-induced current, DmelOrco T80A in Xenopus oocytes; type: cell-based; design: VUAA1-induced current, T80A: unit not given here
Source text: as §1, §2

DmelOrco S146V = DmelOrco S146V (Drosophila melanogaster, UniProt Q9VNB5, S146V); assay: TEVC recording of VUAA1-induced current, DmelOrco S146V in Xenopus oocytes; type: cell-based
Source text: (§5) All Orco gene sequences were optimized[63] for protein expression in Xenopus laevis oocytes with the GenSmartTM Codon optimization Tool and subcloned into a pGEMHE-derived vector. The wildtype gene of Drosophila melanogaster Orco (DmelOrco) was synthesized by Genscript and subcloned with XmaI/XhoI cloning sites. Site-directed mutagenesis of DmelOrco was done by PCR with the Q5® site directed mutagenesis kit (NEB) using primers optimized with the NEBase Changer online tool and following the supplier’s protocol. After transformation of commercial competent bacteria (XL10 Gold) by standard heat-shock protocol and overnight culture in ampicillin-containing LB plates, positive clones were identified by electrophoretic restriction profile and external sequencing (Genewiz). DNAs of positive clones were amplified with Qiagen MidiPrep Kit and the ORF was fully sequenced. For in vitro transcription, DNAs were linearized with restriction enzyme NotI that cuts a unique site in the 3′ region of the polyA tail. The linearized DNAs were purified by the standard phenol:chloroform extraction method and transcribed into mRNA using the T7 ultra mMessage mMachine kit (Thermo Fisher Scientific). mRNAs were purified with the NucleoSpin RNA plus XS kit (Machery-Nagel). DNA and RNA were analyzed by agarose-gel electrophoresis and quantified by spectrophotometry.
(§6) Xenopus laevis oocytes were prepared, as previously described. Briefly, oocytes were defolliculated after surgical retrieval by type 1 A collagenase over 2-3 h under smooth horizontal agitation. They were manually selected and incubated at 19 °C in modified-Barth’s solution (1 mM KCl, 0.82 mM MgSO4, 88 mM NaCl, 2.4 mM NaHCO3, 0.41 mM CaCl2, Ca(NO3)2 0.3 mM, 16 mM HEPES, pH 7.4) supplemented with 100 U mL^−1 of penicillin and streptomycin and 0.1 mg mL^−1 of gentamycin. […]
as §2

MdesOrco = conditions: cited from earlier work
DmelOrco Y400A = DmelOrco Y400A (Drosophila melanogaster, UniProt Q9VNB5, Y400A); assay: TEVC recording of VUAA1-induced current, DmelOrco Y400A in Xenopus oocytes; type: cell-based; conditions: 500 µM VUAA1, TEVC
Source text: as §1, §2

DmelOrco Y400W = DmelOrco Y400W (Drosophila melanogaster, UniProt Q9VNB5, Y400W); assay: TEVC recording of VUAA1-induced current, DmelOrco Y400W in Xenopus oocytes; type: cell-based; conditions: 500 µM VUAA1, TEVC
Source text: as §1, §2

DmelOrco S146W = DmelOrco S146W (Drosophila melanogaster, UniProt Q9VNB5, S146W); assay: TEVC recording of VUAA1-induced current, DmelOrco S146W in Xenopus oocytes; type: cell-based; conditions: 500 µM VUAA1, TEVC
Source text: as §1, §2

DmelOrco F84A = DmelOrco F84A (Drosophila melanogaster, UniProt Q9VNB5, F84A); assay: TEVC recording of VUAA1-induced current, DmelOrco F84A in Xenopus oocytes; type: cell-based
Source text: as §5, §6, §2

DmelOrco L141W = DmelOrco L141W (Drosophila melanogaster, UniProt Q9VNB5, L141W); assay: TEVC recording of VUAA1-induced current, DmelOrco L141W in Xenopus oocytes; type: cell-based; conditions: 500 µM VUAA1, TEVC
Source text: as §1, with “sequenced.” for “sequenced. For in vitro transcription, DNAs were linearized with restriction enzyme NotI that cuts a unique site in the 3′ region of the polyA tail.”
as §3, §4

DmelOrco I181A, sequence (Q9VNB5 whole entry I181A, the tested form may be a part): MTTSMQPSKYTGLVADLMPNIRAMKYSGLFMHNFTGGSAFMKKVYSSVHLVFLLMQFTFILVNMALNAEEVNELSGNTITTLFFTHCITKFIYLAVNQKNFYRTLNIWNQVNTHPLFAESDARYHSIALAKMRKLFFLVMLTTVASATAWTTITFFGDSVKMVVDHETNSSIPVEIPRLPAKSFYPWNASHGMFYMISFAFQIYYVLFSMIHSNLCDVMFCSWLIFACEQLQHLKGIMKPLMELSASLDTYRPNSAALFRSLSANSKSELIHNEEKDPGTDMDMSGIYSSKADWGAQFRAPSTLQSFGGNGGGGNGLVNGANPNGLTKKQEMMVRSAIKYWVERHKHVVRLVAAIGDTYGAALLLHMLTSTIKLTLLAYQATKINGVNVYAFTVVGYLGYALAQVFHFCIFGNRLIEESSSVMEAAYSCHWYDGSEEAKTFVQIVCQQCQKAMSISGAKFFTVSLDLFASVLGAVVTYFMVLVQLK
DmelOrco S146V, sequence (Q9VNB5 whole entry S146V, the tested form may be a part): as the sequence (Q9VNB5 whole entry I181A, the tested form may be a part) above, with S146V, A181I counted along it
DmelOrco W150A, sequence (Q9VNB5 whole entry W150A, the tested form may be a part): as the sequence (Q9VNB5 whole entry I181A, the tested form may be a part) above, with W150A, A181I counted along it
DmelOrco T80A, sequence (Q9VNB5 whole entry T80A, the tested form may be a part): as the sequence (Q9VNB5 whole entry I181A, the tested form may be a part) above, with T80A, A181I counted along it
DmelOrco F84A, sequence (Q9VNB5 whole entry F84A, the tested form may be a part): as the sequence (Q9VNB5 whole entry I181A, the tested form may be a part) above, with F84A, A181I counted along it
DmelOrco Y400A, sequence (Q9VNB5 whole entry Y400A, the tested form may be a part): as the sequence (Q9VNB5 whole entry I181A, the tested form may be a part) above, with A181I, Y400A counted along it
DmelOrco L141A, sequence (Q9VNB5 whole entry L141A, the tested form may be a part): as the sequence (Q9VNB5 whole entry I181A, the tested form may be a part) above, with L141A, A181I counted along it
DmelOrco L141W, sequence (Q9VNB5 whole entry L141W, the tested form may be a part): as the sequence (Q9VNB5 whole entry I181A, the tested form may be a part) above, with L141W, A181I counted along it
DmelOrco Y400W, sequence (Q9VNB5 whole entry Y400W, the tested form may be a part): as the sequence (Q9VNB5 whole entry I181A, the tested form may be a part) above, with A181I, Y400W counted along it
DmelOrco S146W, sequence (Q9VNB5 whole entry S146W, the tested form may be a part): as the sequence (Q9VNB5 whole entry I181A, the tested form may be a part) above, with S146W, A181I counted along it

SMILES: CCc1ccc(NC(=O)CSc2nnc(-c3cccnc3)n2CC)cc1 [VUAA1, N-(4-ethylphenyl)−2-((4-ethyl-5-(3-pyridinyl)−4H-1,2,4-triazol-3-yl)thio)acetamide]
- Response to VUAA1 compared with WT (DmelOrco I181A; 500 µM VUAA1, TEVC, I181A): did not significantly affect the amplitude of activation
- VUAA1-induced current, i181A (DmelOrco I181A; Fig.4b, individual oocytes): 2.04 and 7.33 and 5.46 and 2.9 and 2.3 and 1.5 and 5.38 and 11.56 and 4.17 and 3.69
- Response to VUAA1 compared with WT (DmelOrco L141A): did not induce significant change
- Response to VUAA1 compared with WT (DmelOrco W150A; 500 µM VUAA1, TEVC, W150A): did not significantly affect the amplitude of activation
- VUAA1-induced current, W150A (DmelOrco W150A; Fig.4b, individual oocytes): 4.32 and 3.86 and 5.79 and 2.71 and 5.07 and 2.76 and 2.23 and 2.97 and 2.04 and 1.54 and 0.79 and 4.84 and 4.06 and 8
- Response to VUAA1 compared with WT (DmelOrco T80A; 500 µM VUAA1, TEVC, T80A): did not significantly affect the amplitude of activation
- VUAA1-induced current, T80A (DmelOrco T80A; Fig.4b, individual oocytes): 2.4 and 1.22 and 3.78 and 5.59 and 4.73 and 0.91 and 2.46 and 0.65 and 0.56 and 4.38 and 3.16 and 5.8
- EC50 (DmelOrco S146V): 82.2 µM
- Current induced by VUAA1 (median) (DmelOrco S146V; 500 µM VUAA1, TEVC, S146V): 11.68 µA
- Imax (DmelOrco S146V; concentration-effect curve of VUAA1, TEVC, S146V): 6.99 µA
- Sensitivity of MdesOrco to VUAA1 (MdesOrco): VUAA1-insensitive
- Response to VUAA1 compared with WT (DmelOrco Y400A): did not significantly change the response
- Response to VUAA1 compared with WT (DmelOrco Y400W): did not significantly change the response
- Response to VUAA1 compared with WT (DmelOrco S146W): significant decrease in the response
- EC50 (DmelOrco F84A): 105 µM
- Current induced by VUAA1 (median) (DmelOrco F84A; 500 µM VUAA1, TEVC, F84A): 0.68 µA
- Imax (DmelOrco F84A; concentration-effect curve of VUAA1, TEVC, F84A): 1.01 µA
- Response to VUAA1 compared with WT (DmelOrco L141W): did not induce significant change
